{
  "source": "patent US6969590B2",
  "about": "“Use of a polypeptide for treatment of pruritus in animals” (Zengen, Inc., priority 2001, dated 2005)",
  "key": {"IL-6": {"test_system": "IL-6", "test": "IL-6 production by activated N9 microglia", "format": "cell-based, murine", "settings": "microglia stimulated with LPS+IFN-γ for 24 hr, micromolar concentrations", "protocol": "(§1) The N9 clone of murine microglial cells was obtained by immortalization of embryonic brain cultures with the 3RV retrovirus carrying an activated v-myconcogene. N9 cells were cultured in T-75-cm^2 culture flasks (Corning, Cambridge, Mass.) and maintained at 37° C. in a humidified incubator under 5% CO2 atmosphere in RPMI 1640 supplemented with 2 mM L-glutamine, 50 U/mL penicillin G, 50 μg/mL streptomycin sulfate (GIBCO-BBL, Paisley, UK), and 10% heat-inactivated fetal bovine serum (FBS, Hyclone Lab, Inc., Logan, Utah) until experiments were performed. Cells were used between the first and the tenth passage.\n(§2) Sub-confluent microglial cells were washed twice with phosphate-buffered saline (PBS) and incubated with trypsin 0.025% and ethylenediaminetetraacetate (EDTA) 0.02% without calcium and magnesium for 3 min. at 37° C. to detach the cells from the culture flask. Cells were then resuspended in medium and incubated in 24-well tissue-culture plates at a concentration of 2×10^5 cells/mL for 16 h in a humidified incubator (37° C., 5% CO2). Growth medium was removed and cell monolayers were stimulated with 10 ng/mL lipopolysaccharide (LPS, from Escherichia coli 055:B5, Sigma Chemical Co., St. Louis, Mo.) plus 1 U/ml, murine IFN-γ (Sigma). To test effects of melanocortin peptides, concentrations (1, 10, 25, 50 and 100 μM) of α-MSH (1-13), α-MSH (11-13), and ACTH (1-24) (Sigma) were dissolved in medium and added to wells 10 min before treatment with LPS+IFN-γ. […] Viability of cells was assessed by trypan blue exclusion for each experimental condition; it was consistently >98%. […]\n(§3) TNF-α bioactivity was measured in supernatants of cell cultures by standard cytotoxicity assay using L929 cells and recombinant human TNF-α (Sigma) as standard. […] IL-6 was measured using a commercial murine enzyme-linked immunosorbent assay (ELISA: RPN 2714, Amersham, Little Chalfont, UK).\n(§4) Effects of melanocortin peptides on cytokine and NO production were evaluated by repeated measures analysis of variance followed by Dunnet's test for specific comparisons. […]"}, "C. albicans": {"test_system": "C. albicans", "test": "Horse serum-induced germ tube formation of C. albicans", "format": "cell-based", "settings": "10^−6M, 60 minutes at 37° C.", "protocol": "C. albicans from stationary phase cultures were washed twice with distilled water and suspended in HBSS to a final concentration of 2×10^6/ml. Hyphal growth was induced by addition of 10% inactivated horse serum (GIBCO/BRL, Great Britain) to yeast incubated for 45 minutes at 37° C. with continuous shaking. Horse serum was removed by washing cells twice with HBSS and incubation was continued for 60 minutes at 37° C. in the presence of α-MSH (1-13), α-MSH (6-13) or α-MSH (11-13) at a concentration of 10^−6M with continuous shaking. The percentage of filamentous cells was evaluated under a light microscope with the aid of hemocytometer. Experiments were run in triplicate and at least 200 cells were scored. Photomicrographs were taken with an MC100 camera attached to an Axioskop Zeiss microscope."}, "[1]": {"test_system": "edema caused by intradermal injection of human recombinant IL-1β in the mouse ear", "test": "Ear edema by intradermal recombinant human IL-1β", "format": "in vivo, BALB/c mice", "settings": "centrally administered peptide, propranolol injected centrally", "protocol": "Female BALB/c mice (Simonsen Laboratories, Gilroy, Calif.), 7-8 weeks old, were housed at 23-25° C. in groups not exceeding five animals per cage [28 cm (L)×18 cm (W)×13 cm (H)]. Before the experiments they were acclimatized for not less than 1 week before experimentation to standard lighting and temperature conditions with food and water freely available.\nMice were anesthetized with 10% pentobarbital sodium solution (1 mg/mouse, 50 mg/ml, Nembutal sodium solution; Abbott Laboratories, North Chicago, Ill.). Baseline ear thickness measurements were taken with a spring-loaded micrometer (Swiss Precision Instruments, Los Angeles, Calif.). Ear thickness was expressed in cubic centimeters and was measured at least twice at each time point. The average thickness of unstimulated ears was […]. Inflammation was induced by intradermal injection of 20 μl of recombinant human IL-1β (1500 U; Genzyme, Cambridge, Mass.) in one ear of each mouse using a 28 gauge needle (Hiltz et al., 1992). Measures of ear thickness were repeated 4 and 6 hr later, while the mice were under sodium pentobarbital anesthesia. Edema was assessed by subtracting baseline measures from 4 and 6 hr readings for each animal. α-MSH (11-13) (1663.9 gm/mol; Peninsula Laboratories, Belmont, Calif.) or α-MSH (11-13) (383.48 gm/mol; Peninsula Laboratories) dissolved in saline was injected intracerebroventricularly (20 μl) using procedures described previously (Lipton et al., 1991; Lipton and Catania, 1993).\nSeveral agents were administered at the time of ear challenge to pharmacologically block certain receptors: atropine (Sigma Chemical Co.; 150 μg i.p.), a muscarinic receptor blocker that acts on autonomic end-organ receptors, was chosen because of links between inflammation and modulation of pain and the finding that muscarinic antagonists increase pain threshold (Hartvig et al., 1989); phentolamine (Sigma; 150 μg i.p.) an agent that competes for occupancy of α-adrenergic receptors; propranolol (Sigma; 150 μg, i.p.; 30 μg, i.c.v.), a nonspecific competitive antagonist for β-adrenergic receptors.\nBecause of the size of the experiments and the requirement for several shipments of animals over time, several experiments were performed, each with complete treatment and control groups drawn from the same shipment of mice. Omnibus analysis of variance techniques (Dynastat, Washington, D.C.) were used to test overall differences among group means. Tukey's protected t test was used to compare individual means. Probability values of <0.05 were considered significant."}, "NO2^−": {"test_system": "NO2^−", "test": "Nitrite (NO) production by activated N9 microglia", "format": "cell-based, murine", "settings": "microglia stimulated with LPS+IFN-γ for 24 hr, micromolar concentrations", "protocol": "as §1, §2\nNO is rapidly oxidized to nitrite (NO2) in culture medium, and nitrite concentration is an indicator of NO production. […] Samples were incubated at room temperature for 10 min and absorbency was measured at 540 nm with the use of a microplate reader. Nitrite concentrations were calculated using a sodium nitrite standard curve.\nas §4"}, "TNF-α": {"test_system": "TNF-α", "test": "TNF-α production by activated N9 microglia", "format": "cell-based, murine", "settings": "microglia stimulated with LPS+IFN-γ for 24 hr, micromolar concentrations", "protocol": "as §1, §2, §3, §4"}},
  "data": [
    {"sequence": "SYSMEHFRWGKPV [α-MSH (1-13)]", "values": [
      {"measurement": "reduction of production of IL-6", "setting": "IL-6", "value": 31, "unit": "%"},
      {"measurement": "reduction in the number of filamentous cells (inhibition of germination)", "setting": "C. albicans", "value": "28-32%"},
      {"measurement": "inhibition of ear edema", "setting": "[1]; 4 hr", "value": 36, "unit": "%"},
      {"measurement": "inhibition of ear edema", "setting": "[1]; 6 hr", "value": 32, "unit": "%"},
      {"measurement": "reduction of production of NO2^−", "setting": "NO2^−", "value": 42, "unit": "%"},
      {"measurement": "reduction of production of TNF-α", "setting": "TNF-α", "value": 43, "unit": "%"}
    ]}
  ]
}
